Test results published in PubChem BioAssay (NCI).
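Assay format: 96-well plates, 48-hour exposure. TGI is the concentration that stops growth completely.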

How the values were obtained:
Experiment in all cases: DTP human tumour cell line panel, 48 h
SF-268 CNS = test system: SF-268 CNS
U251 CNS = test system: U251 CNS
OVCAR-3 ovarian = test system: OVCAR-3 ovarian
HCT-116 colon = test system: HCT-116 colon
EKVX NSCLC = test system: EKVX NSCLC
OVCAR-4 ovarian = test system: OVCAR-4 ovarian
NCI-H226 lung = test system: NCI-H226 lung
UACC-62 melanoma = test system: UACC-62 melanoma
K-562 leukemia = test system: K-562 leukemia
UACC-257 melanoma = test system: UACC-257 melanoma
SK-MEL-28 melanoma = test system: SK-MEL-28 melanoma
A498 renal = test system: A498 renal
HS 578T breast = test system: HS 578T breast
SW-620 colon = test system: SW-620 colon
SF-539 CNS = test system: SF-539 CNS
KM12 colon = test system: KM12 colon
SK-MEL-2 melanoma = test system: SK-MEL-2 melanoma
RXF 393 renal = test system: RXF 393 renal
CAKI-1 renal = test system: CAKI-1 renal
SNB-75 CNS = test system: SNB-75 CNS
UO-31 renal = test system: UO-31 renal
HCC-2998 colon = test system: HCC-2998 colon
MDA-MB-435 = test system: MDA-MB-435
HOP-92 NSCLC = test system: HOP-92 NSCLC
OVCAR-5 ovarian = test system: OVCAR-5 ovarian
CCRF-CEM leukemia = test system: CCRF-CEM leukemia
786-0 renal = test system: 786-0 renal
SN12C renal = test system: SN12C renal
MDA-MB-231 breast = test system: MDA-MB-231 breast
ACHN renal = test system: ACHN renal
A549 NSCLC = test system: A549 NSCLC
LOX IMVI melanoma = test system: LOX IMVI melanoma
M14 melanoma = test system: M14 melanoma
SNB-19 CNS = test system: SNB-19 CNS
PC-3 prostate = test system: PC-3 prostate
T-47D breast = test system: T-47D breast
SF-295 CNS = test system: SF-295 CNS
HCT-15 colon = test system: HCT-15 colon
NCI/ADR-RES ovarian = test system: NCI/ADR-RES ovarian
RPMI-8226 leukemia = test system: RPMI-8226 leukemia
SK-OV-3 ovarian = test system: SK-OV-3 ovarian
SK-MEL-5 melanoma = test system: SK-MEL-5 melanoma
HOP-62 NSCLC = test system: HOP-62 NSCLC
MCF7 breast = test system: MCF7 breast
MDA-N = test system: MDA-N
DU-145 prostate = test system: DU-145 prostate
TK-10 renal = test system: TK-10 renal
NCI-H23 lung = test system: NCI-H23 lung
IGROV1 ovarian = test system: IGROV1 ovarian
SR leukemia = test system: SR leukemia
NCI-H460 lung = test system: NCI-H460 lung
NCI-H522 lung = test system: NCI-H522 lung
COLO 205 colon = test system: COLO 205 colon
MALME-3M melanoma = test system: MALME-3M melanoma
HL-60(TB) leukemia = test system: HL-60(TB) leukemia
OVCAR-8 ovarian = test system: OVCAR-8 ovarian
MOLT-4 leukemia = test system: MOLT-4 leukemia
HT29 colon = test system: HT29 colon

`CC1(C)[C@@H](Cn2nnc3c(N)ncnc32)CC[C@@]1(C)CO` was tested. Which TGI (SF-268 CNS) did it give?
Its TGI is > 100 µM.

And the TGI (U251 CNS)?
The TGI was > 100 µM.

What about the TGI (OVCAR-3 ovarian) of the same molecule?
The TGI was > 100 µM.

What about the TGI (HCT-116 colon) of the same molecule?
Its TGI is > 100 µM.

And the TGI (EKVX NSCLC)?
The TGI was > 100 µM.

What about the TGI (OVCAR-4 ovarian) of the same molecule?
The TGI was > 100 µM.

What about the TGI (NCI-H226 lung) of the same molecule?
The TGI was > 100 µM.

What about the TGI (UACC-62 melanoma) of the same molecule?
Its TGI is > 100 µM.

What about the TGI (K-562 leukemia) of the same molecule?
The TGI was > 100 µM.

And the TGI (UACC-257 melanoma)?
Its TGI is > 100 µM.

And the TGI (SK-MEL-28 melanoma)?
Its TGI is > 100 µM.

What about the TGI (A498 renal) of the same molecule?
Its TGI is > 100 µM.

And the TGI (HS 578T breast)?
Its TGI is > 100 µM.

What about the TGI (SW-620 colon) of the same molecule?
The TGI was > 100 µM.

What about the TGI (SF-539 CNS) of the same molecule?
The TGI was > 100 µM.

And the TGI (KM12 colon)?
The TGI was > 100 µM.

And the TGI (SK-MEL-2 melanoma)?
The TGI was > 100 µM.

And the TGI (RXF 393 renal)?
Its TGI is > 100 µM.

What about the TGI (CAKI-1 renal) of the same molecule?
The TGI was > 100 µM.

What about the TGI (SNB-75 CNS) of the same molecule?
The TGI was > 100 µM.

And the TGI (UO-31 renal)?
The TGI was > 100 µM.

What about the TGI (HCC-2998 colon) of the same molecule?
The TGI was 29 µM.

What about the TGI (MDA-MB-435) of the same molecule?
The TGI was > 100 µM.

What about the TGI (HOP-92 NSCLC) of the same molecule?
Its TGI is > 100 µM.

And the TGI (OVCAR-5 ovarian)?
Its TGI is > 100 µM.

And the TGI (CCRF-CEM leukemia)?
Its TGI is > 100 µM.

What about the TGI (786-0 renal) of the same molecule?
The TGI was > 100 µM.

What about the TGI (SN12C renal) of the same molecule?
Its TGI is > 100 µM.

And the TGI (MDA-MB-231 breast)?
The TGI was > 100 µM.

What about the TGI (ACHN renal) of the same molecule?
The TGI was > 100 µM.

What about the TGI (A549 NSCLC) of the same molecule?
The TGI was > 100 µM.

What about the TGI (LOX IMVI melanoma) of the same molecule?
The TGI was > 100 µM.

What about the TGI (M14 melanoma) of the same molecule?
Its TGI is > 100 µM.

What about the TGI (SNB-19 CNS) of the same molecule?
Its TGI is > 100 µM.

What about the TGI (PC-3 prostate) of the same molecule?
The TGI was > 100 µM.

What about the TGI (T-47D breast) of the same molecule?
The TGI was > 100 µM.

And the TGI (SF-295 CNS)?
The TGI was > 100 µM.

What about the TGI (HCT-15 colon) of the same molecule?
Its TGI is > 100 µM.

What about the TGI (NCI/ADR-RES ovarian) of the same molecule?
Its TGI is > 100 µM.

And the TGI (RPMI-8226 leukemia)?
The TGI was > 100 µM.

What about the TGI (SK-OV-3 ovarian) of the same molecule?
Its TGI is > 100 µM.

And the TGI (SK-MEL-5 melanoma)?
Its TGI is > 100 µM.

What about the TGI (HOP-62 NSCLC) of the same molecule?
Its TGI is > 100 µM.

And the TGI (MCF7 breast)?
Its TGI is > 100 µM.

And the TGI (MDA-N)?
Its TGI is > 100 µM.

What about the TGI (DU-145 prostate) of the same molecule?
Its TGI is > 100 µM.

What about the TGI (TK-10 renal) of the same molecule?
The TGI was > 100 µM.

Which TGI (SF-268 CNS) does the source give for `CC1=C(C#N)C2C(=C(C)N1)C(N)=Nc1ccccc12` (stereo not given) here?
Its TGI is > 100 µM.

And the TGI (OVCAR-3 ovarian)?
The TGI was > 100 µM.

And the TGI (NCI-H23 lung)?
The TGI was > 100 µM.

What about the TGI (HCT-116 colon) of the same molecule?
Its TGI is > 100 µM.

What about the TGI (EKVX NSCLC) of the same molecule?
Its TGI is 89.4 µM.

And the TGI (IGROV1 ovarian)?
The TGI was 95.6 µM.

And the TGI (OVCAR-4 ovarian)?
The TGI was > 100 µM.

And the TGI (NCI-H226 lung)?
Its TGI is 93.8 µM.

And the TGI (UACC-62 melanoma)?
The TGI was > 100 µM.

And the TGI (UACC-257 melanoma)?
Its TGI is > 100 µM.

What about the TGI (SK-MEL-28 melanoma) of the same molecule?
Its TGI is > 100 µM.

And the TGI (A498 renal)?
Its TGI is 97.8 µM.

And the TGI (SR leukemia)?
Its TGI is > 100 µM.

What about the TGI (HS 578T breast) of the same molecule?
The TGI was 74.7 µM.

What about the TGI (SW-620 colon) of the same molecule?
The TGI was > 100 µM.

And the TGI (SF-539 CNS)?
The TGI was > 100 µM.

And the TGI (NCI-H460 lung)?
The TGI was > 100 µM.

What about the TGI (KM12 colon) of the same molecule?
The TGI was > 100 µM.

And the TGI (SK-MEL-2 melanoma)?
Its TGI is > 100 µM.

And the TGI (RXF 393 renal)?
The TGI was > 100 µM.

And the TGI (CAKI-1 renal)?
The TGI was > 100 µM.

And the TGI (SNB-75 CNS)?
The TGI was 44.1 µM.

What about the TGI (NCI-H522 lung) of the same molecule?
Its TGI is > 100 µM.

What about the TGI (HCC-2998 colon) of the same molecule?
The TGI was > 100 µM.

And the TGI (COLO 205 colon)?
Its TGI is > 100 µM.

And the TGI (MALME-3M melanoma)?
The TGI was > 100 µM.

What about the TGI (HL-60(TB) leukemia) of the same molecule?
The TGI was 81.6 µM.

What about the TGI (HOP-92 NSCLC) of the same molecule?
The TGI was 62.2 µM.

What about the TGI (OVCAR-5 ovarian) of the same molecule?
Its TGI is > 100 µM.

What about the TGI (CCRF-CEM leukemia) of the same molecule?
The TGI was > 100 µM.

And the TGI (OVCAR-8 ovarian)?
The TGI was > 100 µM.

What about the TGI (786-0 renal) of the same molecule?
Its TGI is > 100 µM.

What about the TGI (SN12C renal) of the same molecule?
Its TGI is > 100 µM.

And the TGI (MOLT-4 leukemia)?
Its TGI is > 100 µM.

What about the TGI (MDA-MB-231 breast) of the same molecule?
The TGI was > 100 µM.

And the TGI (ACHN renal)?
The TGI was > 100 µM.

What about the TGI (A549 NSCLC) of the same molecule?
Its TGI is > 100 µM.

And the TGI (LOX IMVI melanoma)?
Its TGI is > 100 µM.

What about the TGI (HT29 colon) of the same molecule?
The TGI was > 100 µM.

What about the TGI (M14 melanoma) of the same molecule?
Its TGI is > 100 µM.

And the TGI (SNB-19 CNS)?
Its TGI is > 100 µM.

What about the TGI (PC-3 prostate) of the same molecule?
The TGI was 70.8 µM.

What about the TGI (T-47D breast) of the same molecule?
Its TGI is > 100 µM.

What about the TGI (SF-295 CNS) of the same molecule?
Its TGI is > 100 µM.

What about the TGI (HCT-15 colon) of the same molecule?
The TGI was > 100 µM.

What about the TGI (NCI/ADR-RES ovarian) of the same molecule?
The TGI was > 100 µM.

What about the TGI (SK-OV-3 ovarian) of the same molecule?
Its TGI is > 100 µM.

And the TGI (SK-MEL-5 melanoma)?
The TGI was > 100 µM.

And the TGI (HOP-62 NSCLC)?
Its TGI is > 100 µM.

What about the TGI (MCF7 breast) of the same molecule?
Its TGI is > 100 µM.

And the TGI (MDA-N)?
Its TGI is > 100 µM.

What about the TGI (DU-145 prostate) of the same molecule?
The TGI was > 100 µM.

What about the TGI (TK-10 renal) of the same molecule?
The TGI was > 100 µM.
